ChEMBL document CHEMBL1201862, “PubChem BioAssay data set” (2004)
The source made the active and inactive calls.

Assays:
[1] = target: Sphingosine 1-phosphate receptor 4 (Homo sapiens, UniProt O95977); assay: Fluorescence dose response cell-based high throughput screening assay for agonists of the Sphingosine 1-Phosphate Receptor 4 (S1P4). [Related pubchem assays: 1509 (Primary screen.), 1523 (Confirmation screen in triplicates.)]; assay type: functional
Estrogen receptor beta [2] = target: T1, Estrogen receptor beta (Homo sapiens, UniProt Q92731);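 note: recombinant ER-beta bound to coactivator SRC1 peptide in presence of estradiol agonist; inhibitors block coactivator peptide binding and lower the FRET signal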
[3] = target: T2, Sphingosine 1-phosphate receptor 2 (Homo sapiens, UniProt O95136); assay: Dose Response Cell Based Assay for Agonists of the S1P2 Receptor. [Related pubchem assays: 729, 736, 843 ]; assay type: functional
Estrogen receptor beta [4] = target: T1, Estrogen receptor beta; assay: blockers of SRC-3 recruitment to ERβ – biochemical, ELISA, streptavidin-HRP readout, orthogonal assay, confirmation (AID 1060)
[5] = target: Sphingosine 1-phosphate receptor 1 (Homo sapiens, UniProt P21453); assay: Fluorescence-based counterscreen assay for S1P4 agonists: Cell-based dose response high throughput screening assay to identify agonists of the Sphingosine 1-Phosphate Receptor 1 (S1P1). [Related pubchem assays (depositor defined):AID1509, AID1523, AID1801, AID463107, AID463118, AID463119, AID463122, AID463123, AID463129, AID463225, AID504400, AID504460]; assay type: functional
Estrogen receptor = target: T3, Estrogen receptor (Homo sapiens, UniProt P03372);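 note: potency for inhibiting coactivator peptide recruitment to the receptor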
T3 sequence (P03372 whole entry): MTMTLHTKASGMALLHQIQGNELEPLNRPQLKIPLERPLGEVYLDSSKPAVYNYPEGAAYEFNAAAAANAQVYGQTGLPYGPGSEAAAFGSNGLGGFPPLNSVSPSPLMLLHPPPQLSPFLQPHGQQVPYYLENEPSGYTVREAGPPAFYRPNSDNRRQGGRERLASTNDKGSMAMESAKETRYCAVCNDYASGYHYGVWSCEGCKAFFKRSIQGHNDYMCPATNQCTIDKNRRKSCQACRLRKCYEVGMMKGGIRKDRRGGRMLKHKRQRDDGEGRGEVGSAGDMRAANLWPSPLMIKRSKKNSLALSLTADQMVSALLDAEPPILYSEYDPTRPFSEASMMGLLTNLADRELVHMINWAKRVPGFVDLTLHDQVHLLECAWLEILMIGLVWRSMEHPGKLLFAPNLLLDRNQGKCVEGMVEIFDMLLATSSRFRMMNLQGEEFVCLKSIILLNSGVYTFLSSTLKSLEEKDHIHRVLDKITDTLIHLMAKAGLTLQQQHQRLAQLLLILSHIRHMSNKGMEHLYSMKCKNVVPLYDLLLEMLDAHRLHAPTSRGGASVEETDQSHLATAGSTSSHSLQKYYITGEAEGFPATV

[6] = target: Mitogen-activated protein kinase 10 (Homo sapiens, UniProt P53779); assay: Dose response biochemical screening assay for inhibitors of c-Jun N-Terminal Kinase 3 (JNK3). [Related pubchem assays: 746 ]
[7] = target: T4, RNA-binding protein pos-1 (Caenorhabditis elegans, UniProt G5EF15); assay: disruptors of C. elegans POS-1 RNA interaction – biochemical, fluorescence polarization, dose response (AID 1964);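 note: purified POS-1 fused to maltose binding protein made in E. coli; potency of compounds blocking POS-1 binding to fluorescent RNA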
T4 sequence (G5EF15 whole entry): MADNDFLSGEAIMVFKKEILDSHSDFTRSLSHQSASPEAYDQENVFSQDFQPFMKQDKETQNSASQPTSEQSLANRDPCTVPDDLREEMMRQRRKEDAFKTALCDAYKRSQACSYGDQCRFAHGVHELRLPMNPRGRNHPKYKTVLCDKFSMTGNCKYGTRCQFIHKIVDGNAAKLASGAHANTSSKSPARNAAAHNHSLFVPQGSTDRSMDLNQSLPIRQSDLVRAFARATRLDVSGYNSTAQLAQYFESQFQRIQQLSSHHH

[8] = viability loss in Vero cells – cytotoxicity control for Vif-APOBEC3G degradation inhibitor project, dose response (AID 1117358); assay type: functional; settings: Vero
[9] = target: T5, Zinc finger protein mex-5 (Caenorhabditis elegans, UniProt Q9XUB2); assay: potency of MEX-5 RNA-binding blockers – biochemical, C. elegans, fluorescence polarization, dose response (AID 1960)
T5 sequence (Q9XUB2 whole entry): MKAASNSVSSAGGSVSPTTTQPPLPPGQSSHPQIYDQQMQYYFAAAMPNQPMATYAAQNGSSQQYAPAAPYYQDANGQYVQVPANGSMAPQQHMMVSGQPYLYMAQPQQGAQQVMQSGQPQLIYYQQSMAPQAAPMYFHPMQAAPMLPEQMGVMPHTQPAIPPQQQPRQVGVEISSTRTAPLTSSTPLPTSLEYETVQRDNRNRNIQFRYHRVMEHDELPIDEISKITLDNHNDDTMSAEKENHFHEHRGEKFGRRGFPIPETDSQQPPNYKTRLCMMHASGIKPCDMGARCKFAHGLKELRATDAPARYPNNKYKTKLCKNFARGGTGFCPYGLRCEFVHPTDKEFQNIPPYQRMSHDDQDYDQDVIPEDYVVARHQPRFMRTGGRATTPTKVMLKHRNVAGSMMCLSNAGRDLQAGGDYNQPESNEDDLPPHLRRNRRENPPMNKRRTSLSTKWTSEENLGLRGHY

Streptococcus = assay: GAS UMAA2166 growth inhibition – luminescence, BacTiterGlo, counter-screen for streptokinase expression inhibitor project, dose response (AID 1915); assay type: functional, organism-based;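 note: potency for reduction of bacterial viability or growth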
[10] = target: T2, Sphingosine 1-phosphate receptor 2; assay: Dose Response Cell Based Assay for Antagonists of the S1P2 Receptor. [Related pubchem assays: 856, 736 ]; assay type: functional
[11] = tested on: Streptococcus sp. 'group A'; assay: Streptococcus pyogenes SK(-)GAS viability under kanamycin – luminescence, BacTiterGlo, confirmation, counter-screen for streptokinase expression inhibitor project, dose response (AID 1900); assay type: functional, organism-based
Streptokinase A = target: T6, Streptokinase A (Streptococcus pyogenes serotype M1, UniProt P10520); assay: viability-normalized secreted streptokinase activity reduction – plasminogen activation absorbance, OD405, dose response (AID 1914); assay type: functional, Streptococcus pyogenes M1 GAS;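 note: secreted streptokinase activity via plasminogen activation per viability signal from cell pellet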
T6 sequence (P10520 whole entry): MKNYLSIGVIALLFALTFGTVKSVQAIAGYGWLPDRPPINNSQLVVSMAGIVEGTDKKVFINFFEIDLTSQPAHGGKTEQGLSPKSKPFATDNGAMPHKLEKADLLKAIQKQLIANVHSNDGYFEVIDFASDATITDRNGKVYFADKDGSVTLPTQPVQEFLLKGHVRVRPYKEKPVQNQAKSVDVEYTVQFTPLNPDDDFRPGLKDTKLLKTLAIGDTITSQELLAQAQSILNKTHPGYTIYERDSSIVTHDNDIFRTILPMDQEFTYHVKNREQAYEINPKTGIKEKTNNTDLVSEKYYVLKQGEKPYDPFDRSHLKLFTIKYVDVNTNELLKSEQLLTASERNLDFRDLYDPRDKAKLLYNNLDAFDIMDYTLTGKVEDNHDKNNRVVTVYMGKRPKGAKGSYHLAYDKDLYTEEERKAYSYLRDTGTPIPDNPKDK

Escherichia coli = assay: microbe, parasite or virus in culture
[12] = HIV-1 Vif–A3G interaction blockers – biochemical, TR-FRET, GST-Vif 1-94, biotin-A3G peptide, dose response retest, primary screen (AID 1117319); assay type: functional;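 note: TR-FRET signal of purified GST-Vif binding a biotinylated A3G peptide; inhibitors lower the FRET signal by blocking Vif and A3G binding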
Danio rerio = assay: In Vivo Angiogenesis Dose-Response Confirmation. [Related pubchem assays: 732 (Assay preceding this confirmatory assay.)]; assay type: functional, organism-based
[13] = M. tuberculosis growth inhibition, HTS (AID 449762); assay type: functional
[14] = Dd2 parasite growth inhibition in erythrocytes – SYBR Green, dry powder samples, set 9, dose response (AID 1159568); assay type: functional, cell-based
Paired box protein Pax-8 = Paired box protein Pax-8 (Homo sapiens, UniProt Q06710); assay: PAX8 transcriptional activity inhibition in RMG-I – RMG-I cells, luciferase, cherry-pick, dose response (AID 687027); assay type: functional, cell-based;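 note: luciferase reporter driven by Pax8 target thyroperoxidase promoter measured by SteadyGlo luminescence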
[15] = OVCAR-3 cell viability loss – plate reader, dry powder samples, PAX8 inhibitor project, dose response (AID 743044); assay type: functional, cell-based
[16] = IGROV1 cell killing – plate reader, dry powder samples, PAX8 inhibitor project, dose response (AID 743043); assay type: functional, cell-based; settings: IGROV-1
Large T antigen = Large T antigen (Simian virus 40, UniProt P03070); assay type: functional, Betapolyomavirus macacae;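 note: Confirmatory-stage PubChem screen for compounds that inhibit SV40 T antigen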
[17] = target: Heat shock protein HSP 90-alpha (Homo sapiens, UniProt P07900); assay type: functional, organism-based
[18] = target: T7, Mannose-6-phosphate isomerase (Homo sapiens, UniProt P34949); assay: MPI inhibition at elevated mannose 6-phosphate – biochemical, fluorescence intensity, high mannose 6-phosphate, primary screen (AID 1220)
T7 sequence (P34949 whole entry): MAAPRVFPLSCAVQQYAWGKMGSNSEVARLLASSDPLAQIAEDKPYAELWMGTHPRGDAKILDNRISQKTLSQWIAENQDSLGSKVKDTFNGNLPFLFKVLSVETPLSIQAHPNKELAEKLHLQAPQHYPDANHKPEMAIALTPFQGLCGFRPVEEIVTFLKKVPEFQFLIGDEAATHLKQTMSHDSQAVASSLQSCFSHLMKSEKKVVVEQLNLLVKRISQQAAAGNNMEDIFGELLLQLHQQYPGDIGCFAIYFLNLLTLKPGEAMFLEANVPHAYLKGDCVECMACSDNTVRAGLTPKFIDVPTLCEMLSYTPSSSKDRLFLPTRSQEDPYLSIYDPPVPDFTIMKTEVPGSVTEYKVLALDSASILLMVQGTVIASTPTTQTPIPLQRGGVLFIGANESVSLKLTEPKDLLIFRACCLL

INS1 = assay: INS-1E survival protection against cytokine death – cell-based, luminescence, retest, dose response (AID 449756); assay type: functional; settings: Rattus norvegicus;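 note: cell death triggered by IL-1 beta plus TNF-alpha plus IFN-gamma mixture; protective hits raise ATP signal compared with cytokine alone wells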
[19] = viability of PTEN-deleted HCT116 cells – cell-based, HCT116 PTEN knockout, dose response (AID 1047); assay type: functional;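 note: HCT116 colon tumor cells with PTEN knocked out; cells exposed to compound for 60 hours before readout; potency for loss of cell viability measured by luminescence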
Galanin receptor type 2 = Galanin receptor type 2 (Homo sapiens, UniProt O43603); assay: Dose Response cell-based high-throughput screening assay to identify agonists of galanin receptor 2 (GALR2). [Related pubchem assays: 864 ]; assay type: functional
[20] = viability of HCT116 lacking mutant beta-catenin – cell-based, human colon tumor, dose response (AID 1045); assay type: functional;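 note: HCT116 colon tumor cells with beta catenin knocked out; cells exposed to compound for 60 hours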
[21] = toxicity to HepG2 liver cells – cell-based, plate reader, dry powder, set 6, cytotoxicity control, dose response (AID 743311); assay type: functional
cells = settings: HEK293
[22] = toxicity to A549 lung cells – cell-based, plate reader, dry powder, set 6, cytotoxicity control, dose response (AID 743312); assay type: functional
[23] = IC50 of insulin release inhibition, rat insulinoma INS-1E line, 5 mM glucose, cell-based (AID 1117331); assay type: functional
[24] = cytotoxicity toward HT-29 cells – cell-based, CellTiter-Glo luminescence, IC50, dose response (AID 1117330); assay type: functional
[25] = rise of 2N DNA cells, HeLa – IC50, dose response (AID 1117349); assay type: functional, cell-based
[26] = RKO cell viability reduction, dose response, CellTiter-Glo luminescence (AID 1117322); assay type: functional
[27] = HCT116 cell viability decrease, GSK3B pretreatment – CellTiter-Glo, IC50, dose response (AID 1117339); assay type: functional; settings: HCT-116
[28] = SNU-C1 cell viability reduction, dose response, CellTiter-Glo luminescence (AID 1117323); assay type: functional, cell-based
[29] = cytotoxicity toward Colo320 cells – cell-based, CellTiter-Glo luminescence, IC50, dose response (AID 1117334); assay type: functional; settings: COLO 320
[30] = rise of 4N DNA cells, HeLa – IC50, dose response (AID 1117351); assay type: functional, cell-based
[31] = Reduced DLD-1 viability, concentration-response, CellTiter-Glo luminescence (AID 1117352); assay type: functional
[32] = CellTiter-Glo luminescence survival assay, SW480 colon tumor line, concentration-response curve, half-maximal inhibitory concentration (AID 1117338); assay type: functional

T1 sequence (Q92731 whole entry): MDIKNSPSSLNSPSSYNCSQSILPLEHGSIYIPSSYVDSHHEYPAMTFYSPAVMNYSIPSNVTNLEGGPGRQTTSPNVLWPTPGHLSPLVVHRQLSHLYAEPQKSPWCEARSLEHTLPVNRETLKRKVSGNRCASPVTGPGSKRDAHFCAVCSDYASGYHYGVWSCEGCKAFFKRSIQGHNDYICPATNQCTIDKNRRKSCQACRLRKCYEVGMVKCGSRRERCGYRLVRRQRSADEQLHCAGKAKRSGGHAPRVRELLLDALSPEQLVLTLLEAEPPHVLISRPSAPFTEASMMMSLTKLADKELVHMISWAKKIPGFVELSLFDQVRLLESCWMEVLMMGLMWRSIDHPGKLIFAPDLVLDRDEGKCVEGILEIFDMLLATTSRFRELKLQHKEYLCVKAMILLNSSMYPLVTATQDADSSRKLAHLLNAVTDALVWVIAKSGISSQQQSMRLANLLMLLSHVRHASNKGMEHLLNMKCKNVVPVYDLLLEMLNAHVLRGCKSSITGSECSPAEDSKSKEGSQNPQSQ
T2 sequence (O95136 whole entry): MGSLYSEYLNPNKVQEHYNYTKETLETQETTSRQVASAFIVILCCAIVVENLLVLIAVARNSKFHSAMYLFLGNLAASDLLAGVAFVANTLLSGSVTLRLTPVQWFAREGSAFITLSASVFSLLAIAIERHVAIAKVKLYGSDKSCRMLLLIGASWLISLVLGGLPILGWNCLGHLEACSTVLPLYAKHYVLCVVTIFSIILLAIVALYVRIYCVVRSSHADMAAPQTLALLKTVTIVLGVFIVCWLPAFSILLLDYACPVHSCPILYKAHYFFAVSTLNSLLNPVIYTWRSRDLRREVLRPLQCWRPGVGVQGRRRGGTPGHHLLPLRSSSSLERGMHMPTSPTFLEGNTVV
Sequence of Large T antigen (P03070 whole entry): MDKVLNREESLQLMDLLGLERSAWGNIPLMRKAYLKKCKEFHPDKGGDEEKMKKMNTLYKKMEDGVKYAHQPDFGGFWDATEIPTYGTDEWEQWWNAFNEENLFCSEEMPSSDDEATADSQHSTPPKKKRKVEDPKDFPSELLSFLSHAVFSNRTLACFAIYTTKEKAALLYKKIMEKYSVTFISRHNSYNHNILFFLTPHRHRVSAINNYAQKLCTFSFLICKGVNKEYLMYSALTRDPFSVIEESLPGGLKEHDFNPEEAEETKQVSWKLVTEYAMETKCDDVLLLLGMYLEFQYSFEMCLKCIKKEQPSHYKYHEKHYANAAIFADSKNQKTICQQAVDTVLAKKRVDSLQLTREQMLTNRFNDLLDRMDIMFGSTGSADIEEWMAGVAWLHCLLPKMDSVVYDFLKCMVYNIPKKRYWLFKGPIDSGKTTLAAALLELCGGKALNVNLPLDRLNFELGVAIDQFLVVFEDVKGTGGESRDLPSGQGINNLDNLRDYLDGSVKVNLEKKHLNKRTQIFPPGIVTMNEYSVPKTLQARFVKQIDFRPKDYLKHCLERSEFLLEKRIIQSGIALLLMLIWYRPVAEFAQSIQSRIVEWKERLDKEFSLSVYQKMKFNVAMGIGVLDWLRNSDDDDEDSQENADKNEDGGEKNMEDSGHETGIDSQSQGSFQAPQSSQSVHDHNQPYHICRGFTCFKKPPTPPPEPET
Sequence of Paired box protein Pax-8 (Q06710 whole entry): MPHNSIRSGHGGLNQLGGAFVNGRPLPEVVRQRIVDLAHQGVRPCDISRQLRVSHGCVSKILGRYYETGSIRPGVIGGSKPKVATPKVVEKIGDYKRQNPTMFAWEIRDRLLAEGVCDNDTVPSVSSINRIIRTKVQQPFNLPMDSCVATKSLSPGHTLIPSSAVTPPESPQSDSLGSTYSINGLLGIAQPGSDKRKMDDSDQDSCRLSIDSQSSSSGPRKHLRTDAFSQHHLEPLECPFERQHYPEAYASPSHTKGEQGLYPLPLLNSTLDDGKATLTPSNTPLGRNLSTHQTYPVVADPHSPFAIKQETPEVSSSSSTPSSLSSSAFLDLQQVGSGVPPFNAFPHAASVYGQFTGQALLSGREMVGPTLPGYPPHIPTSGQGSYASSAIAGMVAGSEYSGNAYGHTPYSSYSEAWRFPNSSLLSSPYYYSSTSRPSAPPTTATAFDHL
Sequence of Sphingosine 1-phosphate receptor 1 (P21453 whole entry): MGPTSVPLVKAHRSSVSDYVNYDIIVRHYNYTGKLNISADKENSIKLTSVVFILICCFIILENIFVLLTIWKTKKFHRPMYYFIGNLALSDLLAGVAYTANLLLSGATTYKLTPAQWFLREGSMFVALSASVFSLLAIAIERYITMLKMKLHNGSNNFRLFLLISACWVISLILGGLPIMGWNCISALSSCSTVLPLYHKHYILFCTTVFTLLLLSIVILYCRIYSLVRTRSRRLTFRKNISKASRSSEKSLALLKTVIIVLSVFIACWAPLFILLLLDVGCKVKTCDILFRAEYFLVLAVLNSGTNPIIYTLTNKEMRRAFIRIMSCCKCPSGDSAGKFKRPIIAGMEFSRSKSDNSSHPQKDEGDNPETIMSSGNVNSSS
Sequence of Galanin receptor type 2 (O43603 whole entry): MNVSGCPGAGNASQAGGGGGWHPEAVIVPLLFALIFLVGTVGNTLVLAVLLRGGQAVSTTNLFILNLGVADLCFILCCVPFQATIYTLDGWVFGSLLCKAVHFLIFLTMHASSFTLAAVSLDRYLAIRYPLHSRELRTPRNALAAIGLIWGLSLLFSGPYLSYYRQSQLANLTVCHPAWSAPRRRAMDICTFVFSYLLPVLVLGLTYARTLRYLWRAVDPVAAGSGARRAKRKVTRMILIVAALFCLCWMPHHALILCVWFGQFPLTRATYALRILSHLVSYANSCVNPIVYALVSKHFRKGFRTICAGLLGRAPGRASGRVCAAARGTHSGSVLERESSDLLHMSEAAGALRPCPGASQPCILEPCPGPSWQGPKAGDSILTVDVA
Sequence of Sphingosine 1-phosphate receptor 4 (O95977 whole entry): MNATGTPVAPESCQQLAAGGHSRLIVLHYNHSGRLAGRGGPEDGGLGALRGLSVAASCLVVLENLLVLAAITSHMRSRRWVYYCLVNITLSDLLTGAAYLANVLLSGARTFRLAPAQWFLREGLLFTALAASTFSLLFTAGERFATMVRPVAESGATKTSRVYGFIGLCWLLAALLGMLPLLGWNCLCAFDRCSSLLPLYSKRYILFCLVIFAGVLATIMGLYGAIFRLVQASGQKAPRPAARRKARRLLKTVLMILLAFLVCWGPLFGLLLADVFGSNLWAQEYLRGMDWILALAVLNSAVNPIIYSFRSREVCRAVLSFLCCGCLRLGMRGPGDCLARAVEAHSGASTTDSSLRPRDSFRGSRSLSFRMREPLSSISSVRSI
Sequence of Mitogen-activated protein kinase 10 (P53779 whole entry, the tested form may be a part): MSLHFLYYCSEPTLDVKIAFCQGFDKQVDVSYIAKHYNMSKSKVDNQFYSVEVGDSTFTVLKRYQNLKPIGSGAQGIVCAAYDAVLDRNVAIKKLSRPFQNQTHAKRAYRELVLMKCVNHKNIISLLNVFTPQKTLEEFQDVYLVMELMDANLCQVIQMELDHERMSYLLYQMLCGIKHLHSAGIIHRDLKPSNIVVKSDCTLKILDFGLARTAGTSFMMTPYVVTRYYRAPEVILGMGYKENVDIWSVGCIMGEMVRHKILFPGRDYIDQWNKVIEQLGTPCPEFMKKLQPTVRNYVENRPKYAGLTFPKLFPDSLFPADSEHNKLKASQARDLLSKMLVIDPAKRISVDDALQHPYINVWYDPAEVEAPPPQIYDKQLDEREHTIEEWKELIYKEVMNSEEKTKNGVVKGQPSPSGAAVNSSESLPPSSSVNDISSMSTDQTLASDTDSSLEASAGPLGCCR

C=CCn1c(=O)c(C#N)cc2c(=O)n3ccccc3nc21
EC50 [1]: 6.15 µM (active)
IC50 (Estrogen receptor beta [2]): 21.1 µM (active)
EC50 [3]: 64.4 µM (not active)
IC50 (Estrogen receptor beta [4]): < 0.023 µM (not active)
EC50 [5]: 24.6 µM (inactive)
IC50 (Estrogen receptor): 44.7 µM (not active)

COc1cc(C(=O)Nc2nccs2)ccc1OCc1c(C)noc1C
IC50 [6]: > 31 µM (not active)

Cc1cccc(NC2=Nc3ccccc3N3C2=Nc2c(c(C)nn2-c2ccccc2)C3c2ccc(O)c(O)c2)c1 (configuration not stated)
EC50 [7]: 46.4 µM (active)
CC50 [8]: 17.4 µM (active)
EC50 [9]: 28.3 µM (active)
EC50 (Streptococcus): 3.2 µM (active)
IC50 [10]: 4.37 µM (active)
EC50 [11]: 1.54 µM (active)
EC50 (Streptokinase A): > 150 µM (not active)

COc1ccc(S(=O)(=O)NCCSCc2ccco2)cc1Cl
AC50 (Escherichia coli): 43.2 µM (active)
IC50 [12]: > 100 µM (active)

O=C1Nc2ccccc2/C1=C1/Nc2ccc(Br)cc2/C1=N\O
IC50 (Danio rerio): > 10 µM (not active)

O=C(O)c1ccccc1C(=O)NNc1ccc(Cl)cc1Cl
IC50 [13]: > 100 µM (active)

O=C(Nc1ccccc1F)N1CCCCN2[C@@H](CO)[C@@H](c3ccc(/C=C/c4ccccc4)cc3)[C@@H]2C1
AC50 [14]: 2.52 µM (active)
AC50 (Paired box protein Pax-8): 7.96 µM (active)
AC50 [15]: 10.6 µM (active)
AC50 [16]: 29.1 µM (active)

CC1=C/C(=N\OS(=O)(=O)c2ccccc2)C(C(C)C)=CC1=O
IC50 (Large T antigen): 48.2 µM (active)
AC50 [17]: 0.751 µM (active)
IC50 [18]: 6.04 µM (active)
AC50 (INS1): 3.88 µM (active)
EC50 [19]: 2.93 µM (active)
EC50 (Galanin receptor type 2): > 55.7 µM (not active)
EC50 [20]: 3.13 µM (active)

Cc1ccc(C(C)C)c(OCCn2c(CO)nc3ccccc32)c1
AC50 [21]: 37.4 µM (active)
AC50 (cells): 32.2 µM (active)
AC50 [22]: 38.5 µM (active)

CC(=O)Oc1ccc(C2(c3ccc(OC(C)=O)cc3)Oc3ccccc3NC2=O)cc1 [BISOXATIN ACETATE]
IC50 [23]: > 33.3 µM (inactive)
IC50 [24]: > 20 µM (inactive)
IC50 [25]: > 10 µM (inactive)
IC50 [26]: 9.23 µM (inactive)
IC50 [27]: 3.26 µM (active)
IC50 [28]: > 20 µM (inactive)
IC50 [29]: > 20 µM (inactive)
IC50 [30]: > 10 µM (inactive)
IC50 [31]: 19.7 µM (inactive)
IC50 [32]: 9.19 µM (inactive)
